In paper PMC7947880 (Molecular Biology and Evolution, 2020):
Where two headings read alike, the source gives them in different places.

How the values were obtained:
[1] = target: T1, CYP51fx (sterol 14α-demethylase) (Methylococcus capsulatus, UniProt Q603T8); experiment: UV-visible spectral titration; type: binding
T1 sequence (Q603T8 1-551): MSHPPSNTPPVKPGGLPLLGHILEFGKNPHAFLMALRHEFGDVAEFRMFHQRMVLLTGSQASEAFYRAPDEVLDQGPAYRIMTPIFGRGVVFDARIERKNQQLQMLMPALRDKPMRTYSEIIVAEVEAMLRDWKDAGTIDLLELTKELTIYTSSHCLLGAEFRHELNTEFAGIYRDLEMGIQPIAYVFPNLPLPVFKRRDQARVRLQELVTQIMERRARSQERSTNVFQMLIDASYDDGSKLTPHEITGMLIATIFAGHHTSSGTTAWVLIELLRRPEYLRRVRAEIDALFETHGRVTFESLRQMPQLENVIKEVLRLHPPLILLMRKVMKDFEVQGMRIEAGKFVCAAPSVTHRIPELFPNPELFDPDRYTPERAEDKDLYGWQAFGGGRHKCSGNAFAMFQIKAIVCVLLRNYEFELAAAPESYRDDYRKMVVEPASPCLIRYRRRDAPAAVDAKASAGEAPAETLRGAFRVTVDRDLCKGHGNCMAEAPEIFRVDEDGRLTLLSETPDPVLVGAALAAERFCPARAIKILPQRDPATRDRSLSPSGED

[2] = target: T1, CYP51fx (sterol 14α-demethylase); type: biochemical
[3] = target: T1, CYP51fx (sterol 14α-demethylase); experiment: UV-visible spectral titration; type: binding; remark: listed apart in the source
[4] = target: T1, CYP51fx (sterol 14α-demethylase); experiment: UV-visible spectral titration; type: binding; remark: listed apart in the source

| SMILES | Kd [3] [nM] | Kd [4] [nM] | further results |
| --- | --- | --- | --- |
| CC(C)=CCC[C@@H](C)[C@H]1CC[C@@]2(C)[C@@H]3CC=C4[C@@H](CC[C@H](O)C4(C)C)[C@]3(C)CC[C@]12C [cucurbitadienol] | – | – | Kd [1]: 670 nM |
| C=C(CC[C@@H](C)[C@H]1CC[C@@]2(C)C3=C(CC[C@]12C)[C@@]1(C)CC[C@H](O)[C@@H](C)[C@@H]1CC3)C(C)C [obtusifoliol] | – | – | reconstituted 14α-demethylase turnover of radiolabeled sterol with E. coli flavo [2]: 1.2 min⁻¹ |
| CC(C)=CCC[C@@H](C)[C@H]1CC[C@@]2(C)[C@@H]3CC[C@H]4C(C)(C)[C@@H](O)CC[C@@]45C[C@@]35CC[C@]12C [cycloartenol] | 460 | – | – |
| CC(C)=CCC[C@@H](C)[C@H]1CC[C@@]2(C)[C@@H]3CC[C@H]4C(C)(C)[C@@H](O)CC[C@]4(C)C3=CC[C@]12C [parkeol] | 260 | – | – |
| CC(C)=CCC[C@@H](C)[C@H]1CC[C@@]2(C)C3=C(CC[C@]12C)[C@@]1(C)CC[C@H](O)C(C)(C)[C@@H]1CC3 [lanosterol] | – | 94 ± 11 | – |
| C=C(CC[C@@H](C)[C@H]1CC[C@@]2(C)C3=C(CC[C@]12C)[C@@]1(C)CC[C@H](O)C(C)(C)[C@@H]1CC3)C(C)C [eburicol] | – | 48 ± 4 | – |
